Laboratory results published in patent publication EP0873397B1, “NOVEL MICROORGANISM AND METHOD FOR ENVIRONMENTAL PURIFICATION USING THE SAME” (priority 1996, dated 1998).

Test: Analysis of byproducts in soil after trichloroethylene decomposition by UV-sterilized bacterial mass
Experimental: After plating the suspension of the bacterial mass onto a petri dish to a thickness of about 1 mm, and then sterilized under irradiation of a 15 W ultra violet lamp with a wavelength of 260 nm for not less than 60 seconds at a distance of 40 cm from the light source.
After that, trichloroethylene in the soil was allowed to be decomposed and the byproducts which is believed to be formed in association with trichloroethylene decomposition were analyzed in a similar manner to Example 13. Furthermore, in an experiment in which the suspension of sterilized bacterial mass at an amount of 1/100 of that of the NYG medium was inoculated or the suspension was plated as it was onto the NYG agar medium and cultured at 30°C, neither increase in turbidity of the culture liquid nor colony formation were observed, and thereby it was confirmed that there was complete sterilization.

SMILES: OCC(Cl)(Cl)Cl [Trichloroethanol]
- Result (byproduct in the soil): Not detected
